Results taken from patent publication US12077503B2, “Substituted cyclic amides and their use as herbicides” (FMC CORPORATION, priority 2015, dated 2024).

Key:
Type in all cases: in vivo
[1] = test system: barnyardgrass (Echinochloa crus-galli); assay: Test B flooded paddy test; conditions: Echinochloa crus-galli, 250 g ai/ha, Flood; 0 to 100 scale where 0 is no effect and 100 is complete control; read-out: Barnyardgrass plant response rating
Procedure, shortened: (§1)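 Percent control, visually estimated after 13–15 d in the greenhouse on a 0–100 basis, compares treated pots with untreated ones; compound was put into paddy water 3 cm above the soil when plants had two leaves.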

[2] = test system: ducksalad (Heteranthera limosa); assay: Test B flooded paddy test; conditions: Heteranthera limosa, 250 g ai/ha, Flood; 0 to 100 scale where 0 is no effect and 100 is complete control; read-out: Ducksalad plant response rating
Procedure, shortened: as §1

[3] = test system: sedge, umbrella (small-flower umbrella sedge, Cyperus difformis); assay: Test B flooded paddy test; conditions: Cyperus difformis, 250 g ai/ha, Flood; 0 to 100 scale where 0 is no effect and 100 is complete control; read-out: Sedge, Umbrella plant response rating
Procedure, shortened: as §1

rice (Oryra sativa) = assay: Test B flooded paddy test; conditions: Oryza sativa, 250 g ai/ha, Flood; 0 to 100 scale where 0 is no effect and 100 is complete control; read-out: Rice plant response rating
Procedure, shortened: as §1

[4] = test system: ryegrass, Italian (Italian ryegrass, Lolium multiflorum); assay: Test A preemergence; conditions: Lolium multiflorum, pre-emergence, 240 h, preemergence, 0 to 100 scale where 0 is no effect and 100 is complete control, read-out: Ryegrass, Italian plant response rating; for pest or weed control at 125 g/ha: 125 g ai/ha, visual injury rating, approximately 10 d; for pest or weed control at 500 g/ha: 500 g ai/ha
Procedure, shortened: (§2)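 Visual injury scores from 0, no effect, to 100, complete control, were assigned versus untreated controls roughly 10 d after treatment in the greenhouse. Test chemicals, formulated with surfactant in a non-phytotoxic solvent, were applied to planted seeds as a preemergence soil spray or postemergence to one- to two-leaf plants 2 to 10 cm tall, in loam–sand soil.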

Kochia (Kochia scoparia) = assay: Test A postemergence; conditions: Bassia scoparia, post-emergence, 240 h, Postemergence; for pest or weed control at 125 g/ha: 125 g ai/ha, visual rating about 10 d after treatment, read-out: Kochia plant response rating (0 to 100 scale); for pest or weed control at 500 g/ha: 500 g ai/ha, visual injury, 0 to 100 scale (0 no effect, 100 complete control), approx. 10 d, read-out: Plant response rating, Kochia
Procedure, shortened: as §2

[5] = test system: wheat (Triticum aestivum); assay: Test A postemergence; conditions: Triticum aestivum, post-emergence, 240 h, Postemergence; for plant injury at 125 g/ha: 125 g ai/ha, visual rating about 10 d after treatment, read-out: Wheat plant response rating (0 to 100 scale); for plant injury at 500 g/ha: 500 g ai/ha, visual injury, 0 to 100 scale (0 no effect, 100 complete control), approx. 10 d, read-out: Plant response rating, Wheat
Procedure, shortened: as §2

corn (Zea mays) = assay: Test A postemergence; conditions: Zea mays, post-emergence, 240 h, Postemergence; for plant injury at 125 g/ha: 125 g ai/ha, visual rating about 10 d after treatment, read-out: Corn plant response rating (0 to 100 scale); for Corn plant response rating (crop injury, 0 = no effect, 100 = complete kill) at 500 g/ha: 500 g ai/ha, visual injury, 0 to 100 scale (0 no effect, 100 complete control), approx. 10 d
Procedure, shortened: as §2

[6] = test system: pigweed (Amaranthus retroflexus); assay: Test A postemergence; conditions: Amaranthus retroflexus, post-emergence, 240 h, Postemergence; for pest or weed control at 125 g/ha: 125 g ai/ha, visual rating about 10 d after treatment, read-out: Pigweed plant response rating (0 to 100 scale); for pest or weed control at 500 g/ha: 500 g ai/ha, visual injury, 0 to 100 scale (0 no effect, 100 complete control), approx. 10 d, read-out: Plant response rating, Pigweed
Procedure, shortened: as §2

[7] = test system: barnyardgrass (Echinochloa crus-galli); assay: Test A postemergence; conditions: Echinochloa crus-galli, post-emergence, 240 h, Postemergence; for pest or weed control at 125 g/ha: 125 g ai/ha, visual rating about 10 d after treatment, read-out: Barnyardgrass plant response rating (0 to 100 scale, 0 no effect, 100 complete control); for pest or weed control at 500 g/ha: 500 g ai/ha, visual injury, 0 to 100 scale (0 no effect, 100 complete control), approx. 10 d, read-out: Plant response rating, Barnyardgrass
Procedure, shortened: as §2

[8] = test system: Galium (catchweed bedstraw, Galium aparine); assay: Test A postemergence; conditions: Galium, post-emergence, 240 h, Postemergence; for pest or weed control at 125 g/ha: 125 g ai/ha, visual rating about 10 d after treatment, read-out: Galium plant response rating (0 to 100 scale); for pest or weed control at 500 g/ha: 500 g ai/ha, visual injury, 0 to 100 scale (0 no effect, 100 complete control), approx. 10 d, read-out: Plant response rating, Galium
Procedure, shortened: as §2

[9] = test system: blackgrass (Alopecurus myosuroides); assay: Test A postemergence; conditions: Alopecurus myosuroides, post-emergence, 240 h, Postemergence; for pest or weed control at 125 g/ha: 125 g ai/ha, visual rating about 10 d after treatment, read-out: Blackgrass plant response rating (0 to 100 scale); for pest or weed control at 500 g/ha: 500 g ai/ha, visual injury, 0 to 100 scale (0 no effect, 100 complete control), approx. 10 d, read-out: Plant response rating, Blackgrass
Procedure, shortened: as §2

[10] = test system: ryegrass, Italian (Italian ryegrass, Lolium multiflorum); assay: Test A postemergence; conditions: Lolium multiflorum, post-emergence, 240 h, Postemergence; for pest or weed control at 125 g/ha: 125 g ai/ha, visual rating about 10 d after treatment, read-out: Ryegrass, Italian plant response rating (0 to 100 scale); for pest or weed control at 500 g/ha: 500 g ai/ha, visual injury, 0 to 100 scale (0 no effect, 100 complete control), approx. 10 d, read-out: Plant response rating, Ryegrass, Italian
Procedure, shortened: as §2

[11] = test system: giant foxtail (Setaria faberii); assay: Test A postemergence; conditions: Setaria faberi, post-emergence, 240 h, Postemergence; for pest or weed control at 125 g/ha: 125 g ai/ha, visual rating about 10 d after treatment, read-out: Foxtail, Giant plant response rating (0 to 100 scale); for pest or weed control at 500 g/ha: 500 g ai/ha, visual injury, 0 to 100 scale (0 no effect, 100 complete control), approx. 10 d, read-out: Plant response rating, Foxtail, Giant
Procedure, shortened: as §2

[12] = test system: ragweed (common ragweed, Ambrosia elatior); assay: Test A postemergence; conditions: Ambrosia artemisiifolia, post-emergence, 240 h, Postemergence; for pest or weed control at 125 g/ha: 125 g ai/ha, visual rating about 10 d after treatment, read-out: Ragweed plant response rating (0 to 100 scale); for pest or weed control at 500 g/ha: 500 g ai/ha, visual injury, 0 to 100 scale (0 no effect, 100 complete control), approx. 10 d, read-out: Plant response rating, Ragweed
Procedure, shortened: as §2

SMILES | pest or weed control at 250 g/ha [1] | pest or weed control at 250 g/ha [2] | pest or weed control at 250 g/ha [3] | pest or weed control at 250 g/ha (rice (Oryra sativa)) | pest or weed control at 125 g/ha [4] | pest or weed control at 500 g/ha [4] | pest or weed control at 125 g/ha (Kochia (Kochia scoparia)) | pest or weed control at 500 g/ha (Kochia (Kochia scoparia)) | plant injury at 125 g/ha [5] | plant injury at 500 g/ha [5] | plant injury at 125 g/ha (corn (Zea mays)) | Corn plant response rating (crop injury, 0 = no effect, 100 = complete kill) at 500 g/ha (corn (Zea mays)) | pest or weed control at 125 g/ha [6] | pest or weed control at 500 g/ha [6] | pest or weed control at 125 g/ha [7] | pest or weed control at 500 g/ha [7] | pest or weed control at 125 g/ha [8] | pest or weed control at 500 g/ha [8] | pest or weed control at 125 g/ha [9] | pest or weed control at 500 g/ha [9] | further results
CSc1ccccc1NC(=O)[C@H]1C(=O)NC[C@@H]1c1cc(C)cc(F)c1 [Compound 1306] | 20% | 100% | 0% | 0% | 0% | 0% | 0% | 60% | 0% | 0% | 0% | 0% | 0% | 0% | 20% | 90% | 20% | 40% | 0% | 0% | pest or weed control at 125 g/ha [10]: 0%; pest or weed control at 500 g/ha [10]: 0%; pest or weed control at 125 g/ha [11]: 0%; pest or weed control at 500 g/ha [11]: 20%; pest or weed control at 125 g/ha [12]: 0%; pest or weed control at 500 g/ha [12]: 0%
Cc1cc(F)cc([C@H]2CNC(=O)[C@@H]2C(=O)Nc2ccccc2S(C)(=O)=O)c1 [Compound 1307] | 30% | 100% | 0% | 20% | 0% | 0% | 0% | 40% | 0% | 0% | 0% | 0% | 0% | 0% | 40% | 90% | 30% | 40% | 0% | 0% | pest or weed control at 125 g/ha [10]: 0%; pest or weed control at 500 g/ha [10]: 0%; pest or weed control at 125 g/ha [11]: 0%; pest or weed control at 500 g/ha [11]: 20%; pest or weed control at 125 g/ha [12]: 0%; pest or weed control at 500 g/ha [12]: 0%
Cc1cc(F)cc([C@H]2CNC(=O)[C@@H]2C(=O)Nc2cccc(F)c2C)c1 [Compound 1308] | 65% | 100% | 0% | 40% | 0% | 0% | 0% | 0% | 20% | 40% | 20% | 80% | 0% | 0% | 80% | 80% | 30% | 50% | 30% | 50% | pest or weed control at 125 g/ha [10]: 0%; pest or weed control at 500 g/ha [10]: 0%; pest or weed control at 125 g/ha [11]: 20%; pest or weed control at 500 g/ha [11]: 80%; pest or weed control at 125 g/ha [12]: 0%; pest or weed control at 500 g/ha [12]: 20%
